Experiment [1] deals with thymosin beta-4 (TMSB4X) mRNA. The experiment is described as follows: Thymosin beta-4 stimulation assay (QUANTIGENE multiplex mRNA assay). Format: cell-based. Particulars: human dermal fibroblasts, 24 hours. The procedure:
Normal human dermal fibroblasts were cultured in 96-well tissue culture-treated plates, containing appropriate culture medium. Stock solutions of actives were made in an appropriate vehicle (water or DMSO). Cells were treated with test material or respective vehicle control diluted in growth medium for 24 hours in a humidified 37° C. incubator with 10% CO2. After incubation, growth medium from each plate was removed and 100 μL, of lysis buffer was added to the wells and placed in 37° C. incubator with 10% CO2 for 30 minutes. At the end of incubation, the cell lysates were collected in freezer plates and placed in −80° C. freezer until analysis. Changes in mRNA for thymosin beta-4 (TMSB4X) after treatment were analyzed using Affymetrix's QUANTIGENE® multiplex assay that employs a branched DNA signal amplification technology, following the manufacturer's instructions (Affymetrix, Calif.). Percent increase in mRNA for thymosin beta-4 (TMSB4X) was calculated by comparing the test results to the control. The percent up-regulation is converted to a scaled score as shown below in Table 2.
A variety of botanical extracts were tested for the ability to up-regulate Thymosin beta-4 according to the method of Example 1. The concentrations of each extract are provided based on the dry weight of the given plant extract, by which is meant the weight of the extract after volatile extraction solvents have been removed. The cells tested were primary human dermal fibroblasts.
Synthetic compounds 1-4 were also tested as active agents for the ability to upregulate thymosin beta-4 according to the method of Example 1.

A further experiment deals with thymosin beta-4. Put plainly: Mode of operation of retinol in human skin.
Experiment [2] has as its system IL-8 gene and protein expression. The experiment is described as follows: Anti-inflammatory effect of TB-4 in TNF-alpha treated human dermal fibroblasts (qPCR, ELISA, PCR array). Format: cell-based. Here is the method: Commercially obtained human dermal fibroblasts were treated with tumor necrosis factor alpha for 6 hours to induce inflammation. Cells were either pre-treated with recombinant TB-4 or control media to assess its anti-inflammatory effect. Cell lysates and media were collected and qPCR and ELISA were performed to assess IL-8 gene and protein expression. Human cytokines and chemokines PCR array was also performed to investigate the impact of TB-4 on the expression profile of key secreted proteins in the inflammation pathway. […] Therefore, modulating endogenous TB-4 could be adopted as an avenue to battle inflammatory skin damage resulting from skin chronological aging and photoaging.

`CCOCCCNC(=O)c1cc(NC(=O)/C=C/c2ccccc2)ccc1N1CCC(Cc2ccccc2)CC1` [Compound 1]: the “Thymosin beta-4 (TMSB4X) Degree of Upregulation” value (from here on “Thymosin beta-4 (TMSB4X) Degree”) in experiment [1] (compound Conc. 0.001%) is reported as “++ (41-60)”.
Take `Cc1ccc(C(=O)CC(NCc2ccccc2)C(=O)O)cc1` (stereo not shown) [Compound 2]: the “Thymosin beta-4 (TMSB4X) Degree” value in experiment [1] (compound Conc. 0.0001%) is recorded as “+ (21-40)”.
Turning to `CCc1c(C(=O)N2CCCC2)cnn1-c1ccccc1Cl` [Compound 4], in experiment [1] (compound Conc. 0.00001%), the “Thymosin beta-4 (TMSB4X) Degree” value is reported as “+ (21-40)”.
As for `CC1=C(/C=C/C(C)=C/C=C/C(C)=C/CO)C(C)(C)CCC1` [retinol], the “upregulation of thymosin beta-4” value in the experiment on thymosin beta-4 was “potent upregulator”.
Take “TB-4: recombinant thymosin beta-4, 43 amino acid peptide, 4.9 kDa (SDKPDMAEIEKFDKSKLKKTETQEKNPLPSKETIEQEKQAGES; UniProt P62328 2-44, looked up)”: in experiment [2] (human cytokines and chemokines PCR array, TNF-alpha treated fibroblasts), the “regulation of key cytokines and chemokines genes” value is on record as “significantly regulates”. For the same compound, the “suppression of IL-8 protein secretion caused by TNF-alpha stimulation” value in experiment [2] (pre-treatment with recombinant TB-4, TNF-alpha 6 hours, ELISA) was “greater than 50%”. Further, the “suppression of IL-8 gene expression caused by TNF-alpha stimulation” value in experiment [2] (pre-treatment with recombinant TB-4, TNF-alpha 6 hours, qPCR) was “greater than 50%”.

Source of the values: patent US20140193529A1, “Modulation of Thymosin Beta-4 in Skin” (AVON PRODUCTS, INC., priority 2013, published 2014).
